“Also recorded” adds a separate entry of the source.
Key:
[1] = tested on: IL-1β; assay: IL-1β production by monocytes of normal donors; assay type: cell-based, human
Description: (§1) The effects of flavopereirine on the production of primary (IL-1β and TNF-α) and secondary (IL-6) cytokines by monocytes was also tested. The adhesive monocytes used were taken from the blood of two types of donors:
Normal donors--voluntary blood donors who attended the blood bank of the Pitie-Salpetriere Hospital, Paris, France; and
(§2) Product H was not used in these experiments at a rate of more than 20 μg/ml water, since above this rate, net toxicity could have been produced.

[2] = Cytotoxicity in human monocytes; assay type: cell-based; settings: human, monocytes
Description: as §2

[3] = tested on: human monocytes; assay: Cytotoxicity in human monocytes; assay type: cell-based; settings: four donors
Description: as §2

[4] = tested on: HIV-1 BRE1 (HIV-1Asym.); assay: HIV P24 production in PBMC, viral inoculum pretreated, isolate BRE1; assay type: cell-based; settings: virus pretreated with 30 or 60 μg/ml
Description: To test the efficacy of flavopereirine on the infectious capability of HIV-1, two experiments were conducted. […] After 2 hours of incubation, the cells were rinsed twice and cultivated in 1 ml of RPMI 1640 containing 20 IU of IL-2 per ml (Boehringer […], Germany), 2 μg of Polybrene (hexadimethrine bromide) per ml (Sigma, St. Louis, Mo., USA) and 10^-7 IU of goat antiserum acting against human alpha interferon (Janssen, Beerse, Belgium) per ml. Half the culture was changed after 72 hours, and thereafter every 48 hours until the 30th day. […] The surface material of the culture was tested by an immuno-enzymatic (ELISA) assay for the production of antigen P24 (Abbott, Chicago, Ill., USA) and the optical density (OD) of the resulting color was converted into P24 concentration from the slope of a standard nomogram, as described by W. Lu and J. -M. Andrieu, Journal of Virology, 66(1): 334-340 (1992).

[5] = tested on: HIV-1; assay: HIV-1 cytopathogenic effect on MT4 cells (syncytia count); assay type: cell-based
Description: An evaluation of the antiviral effect of flavopereirine was also undertaken by studying the cytopathogenic effect of the HIV virus on MT4 cells, given that a formation of syncytia was observed 4-6 days after infection by HIV-1, followed by the death of the cells.
The flavopereirine was used in the form of an alcoholic solution (40 mg in 100 μl alcohol). Dilutions were made in RPMI medium at 10% of FCS, 1% of PSN and 1% of glutamine. The MT4 cells were left to pre-incubate for two hours at 37° C. with a successive dilution of flavopereirine containing 3×10^5 cells for 10 μl of flavopereirine solution. The solution was obtained by adding 100 μl of a 10^-4 dilution of HIV-1 virus, producing a syncytia formation in 4-6 days. After one hour of incubation at 37° C., the infected MT4 cells were washed three times with RPMI solution before being placed in culture (3×10^5 cells/ml in microplates with 24 wells) with the presence of different dilutions of flavopereirine. The syncytia count was taken each day in duplicate.

[6] = Cytotoxicity (viability) in resting PBMC; assay type: cell-based, human; settings: human, pbmc, read-out: Viability of PBMC after exposure; for viability at 72 h: d3; for viability at 168 h: d7; for viability at 264 h: d11; for viability at 312 h: d13; for viability at 360 h: d15
Description: (§3) To evaluate the cytotoxicity of flavopereirine in resting PBMC and in blast cells, prewashed fresh and blastic PBMC taken from five randomly-selected,healthy, HIV-negative donors were treated in triplicate with 30 or 60 μg flavopereirine per ml of alcoholic solution for two hours, After washing twice, the cells were placed in culture in cellular culture medium until day 15. The viability of the cells of each group was examined by exclusion coloring with trypan blue and by quantimetric analysis. Cultures of HIV-negative PBMC without flavopereirine (compound H) were used as controls.

[7] = tested on: human PBMC at rest; assay: Cytotoxicity (viability) in resting PBMC; assay type: cell-based
Description: as §3

[8] = tested on: IL-1β; assay: IL-1β production by monocytes of HIV-positive donors; assay type: cell-based, human
Description: as §1
(§4) HIV-positive donors from medical consultations. These individuals were in the early stages of HIV infection and, at the moment of taking the blood, were not undergoing any treatment. The risk factors involved were intravenous drug abuse for six of the donors, sexual transmission for three and blood transfusion (in Zaire) for one patient. No correlation was found between the risk factors and the results of the experiments.
(§5) The response of the monocytes taken from the various HIV-positive donors was tested in terms of spontaneous response. The quantities of cells received were low (the donors were not affected by cytapheresy), and the experiments were therefore limited by the number of cells available.

[9] = tested on: MT4 cells; assay: Cellular toxicity in MT4 cells; assay type: cell-based; settings: d3, duplicate
[10] = Cytotoxicity (viability) in blastic PBMC; assay type: cell-based, human; settings: human, pha-stimulated pbmc, blastic, read-out: Viability of PBMC after exposure; for viability at 72 h: d3; for viability at 168 h: d7; for viability at 264 h: d11; for viability at 312 h: d13; for viability at 360 h: d15
Description: as §3

[11] = tested on: PBMC stimulated by PHA (blastic); assay: Cytotoxicity (viability) in blastic PBMC; assay type: cell-based, human; settings: 30 or 60 μg/ml
Description: as §3

[12] = tested on: interleukin-6; assay: IL-6 production by monocytes of HIV-positive donors; assay type: cell-based, human
Description: as §1, §4, §5
Interleukin-4 was used at the same time as flavopereirine H, since it has been shown prior to these experiments that this cytokine blocks the spontaneous production of interleukin-6 in certain HIV-positive patients.
In five cases, […] was used for comparison, since this, too, blocks the production of IL-6 in normal monocytes stimulated by LPS.

Q: Which “direct activity on production of IL-1β” value ([1]; donor #10, 10 and 20 μg/ml) does the source give for CCc1ccc2c3[nH]c4ccccc4c3cc[n+]2c1 [flavopereirine] here?
A: responded very well

Q: What about the “direct activity on production of IL-1β” value ([1]; donors #3, 5 and 6, dose effect, marginal) of the same compound?
A: Increase in the production of IL-1β

Q: What about the “indirect activity on production of IL-1β” value ([1]; response to LPS or IFN-γ+LPS, p<0.05) of the same compound?
A: no significant modification

Q: And the cytotoxicity ([2]; 30 μg/ml, four donors)?
A: > 40%

Q: What about the MCC ([2]; healthy and asymptomatic HIV-positive donors, read-out: toxic dosage on human monocytes in vitro) of the same compound?
A: > 20 µg/mL

Q: And the cytotoxicity ([3]; 30, 50, 100 μg/ml)?
A: virtually total cytotoxicity

Q: What about the cytotoxicity ([3]; above 30 μg/ml) of the same compound?
A: 100 µg/mL

Q: What about the “infection of target PBMC” value [4] of the same compound?
A: completely prevented the infection of target PBMC

Q: And the syncytia ([5]; 100 ng/ml, d7, duplicate, Table I)?
A: ++/T

Q: And the syncytia ([5]; 1 μg/ml, d7, duplicate, Table I)?
A: ++/T

Q: What about the syncytia ([5]; 30 μg/ml, d6, duplicate, Table III) of the same compound?
A: a few were observed after 6 days

Q: And the syncytia ([5]; 50 μg/ml, d7, duplicate, Table I)?
A: syncytia had not formed after 7 days culture

Q: What about the protection ([5]; 50 μg/ml, Table II summary) of the same compound?
A: confirms the protection

Q: What about the syncytia ([5]; 60 μg/ml, d7, duplicate, Table III) of the same compound?
A: no syncytia were formed

Q: What about the syncytia ([5]; from 10 μg/ml to 100 ng/ml, Table I summary) of the same compound?
A: syncytia was observed, as it was in the HIV-1 control

Q: What about the viability at 72 h ([6]; 30 μg/ml 2 hrs) of the same compound?
A: 95 ± 4%

Q: And the viability at 168 h ([6]; 30 μg/ml 2 hrs)?
A: 93 ± 2%

Q: And the viability at 264 h ([6]; 30 μg/ml 2 hrs)?
A: 88 ± 7%

Q: And the viability at 312 h ([6]; 30 μg/ml 2 hrs)?
A: 82 ± 10%

Q: What about the viability at 360 h ([6]; 30 μg/ml 2 hrs) of the same compound?
A: 81 ± 11%

Q: And the viability at 72 h ([6]; 60 μg/ml 2 hrs)?
A: 56 ± 6%

Q: And the viability at 168 h ([6]; 60 μg/ml 2 hrs)?
A: 23 ± 4%

Q: What about the viability at 264 h ([6]; 60 μg/ml 2 hrs) of the same compound?
A: 17 ± 4%

Q: What about the viability at 312 h ([6]; 60 μg/ml 2 hrs) of the same compound?
A: 12 ± 5%

Q: What about the viability at 360 h ([6]; 60 μg/ml 2 hrs) of the same compound?
A: 25 ± 8%

Q: And the “significant reduction of viability of resting PBMC” value ([7]; 30 μg/ml)?
A: this was not the case

Q: What about the “viability of resting PBMC” value ([7]; 60 μg/ml, p<0.05) of the same compound?
A: reduced significantly

Q: And the “direct activity on base production of IL-1β” value ([8]; HIV-positive donors)?
A: No modification on the base production was observed

Q: What about the “indirect activity on production of interleukin-1” value ([8]; three dosages, p<0.05) of the same compound?
A: absence of any impact on the production of interleukin-1

Q: And the cellular toxicity ([9]; 100 μg/ml, Table I)?
A: cellular toxicity

Q: What about the cellular toxicity ([9]; 100 μg/ml, Table I, listed as H) of the same compound?
A: Tox

Q: What about the cellular toxicity ([9]; 100 μg/ml, Table II) of the same compound?
A: Tox

Q: What about the cellular toxicity ([9]; 400 μg/ml, Table I) of the same compound?
A: cellular toxicity

Q: And the cellular toxicity ([9]; 400 μg/ml, Table I, listed as H)?
A: Tox

Q: What about the viability at 72 h ([10]; 30 μg/ml 2 hrs) of the same compound?
A: 88 ± 3%

Q: What about the viability at 168 h ([10]; 30 μg/ml 2 hrs) of the same compound?
A: 35 ± 7%

Q: What about the viability at 264 h ([10]; 30 μg/ml 2 hrs) of the same compound?
A: 71 ± 3%

Q: And the viability at 312 h ([10]; 30 μg/ml 2 hrs)?
A: 76 ± 9%

Q: And the viability at 360 h ([10]; 30 μg/ml 2 hrs)?
A: 69 ± 8%

Q: What about the viability at 72 h ([10]; 60 μg/ml 2 hrs) of the same compound?
A: 79 ± 4%

Q: What about the viability at 168 h ([10]; 60 μg/ml 2 hrs) of the same compound?
A: 74 ± 5%

Q: What about the viability at 264 h ([10]; 60 μg/ml 2 hrs) of the same compound?
A: 70 ± 4%

Q: What about the viability at 312 h ([10]; 60 μg/ml 2 hrs) of the same compound?
A: 71 ± 8%

Q: And the viability at 360 h ([10]; 60 μg/ml 2 hrs)?
A: 63 ± 7%

Q: What about the “viability of blastic cells” value [11] of the same compound?
A: appeared to be independent of exposure to compound H

Q: What about the “effect on spontaneous production of IL-6” value ([12]; alone, dosage effect, never total, p<0.05, listed as Product H) of the same compound?
A: inhibitory effect with a very clear dosage effect; also recorded: inhibited the spontaneous production of IL-6 shown in some HIV-positive patients

Q: And the “effect on spontaneous production of IL-6 with interleukin-4” value ([12]; in presence of interleukin-4, listed as product H)?
A: an amplification effect was almost always obtained

Q: And the “concentration for total disappearance of IL-6 production” value ([12]; with interleukin-4, almost always (except case #4), p<0.05)?
A: 3 µg/mL

Q: And the “concentration for total disappearance of IL-6 production (often)” value ([12]; with interleukin-4, often, p<0.05)?
A: 1 µg/mL

Reference: patent US5519028A, “Antiviral preparations” (priority 1992, dated 1996)
